# Like-named read-outs stand apart in the source and are kept apart here.
# Experiments:
# [1] = test system: C. glabrata; experiment: MIC; type: cell-based
# [2] = test system: C. albicans; experiment: MIC; type: cell-based
# [3] = test system: C. tropicalis; experiment: MIC; type: cell-based
# [4] = test system: C. albicans SN250, C. albicans, C. krusei, C. glabrata, C. tropicalis, A. fumigatus 91, 1163, 1100; experiment: Average MIC over the tested strains; type: cell-based; conditions: for MIC: average over the 8 listed strains; for Average MIC for AmB analogue: value of the corresponding AmB analogue, not of the C2’epi compound
# [5] = test system: A. fumigatus 1163; experiment: MIC; type: cell-based
# [6] = test system: C. albicans SN250; experiment: MIC; type: cell-based, Candida albicans
# [7] = test system: A. fumigatus 91; experiment: MIC; type: cell-based
# [8] = test system: C. krusei; experiment: MIC; type: cell-based
# [9] = test system: A. fumigatus 1100; experiment: MIC; type: cell-based
# [10] = Liver Microsome stability (In Vitro Metabolism); type: in vitro ADME; conditions: for Remaining (T = NCF60 min): no cofactor 60 min
# Experimental: Working Compound solution: 10 uM in 50 mM potassium phosphate buffer with 9% MeOH and 1% DMSO
# Microsome solution: working concentration 0.625 mg/ml
# Stopping solution: Cold ACN with 200 ng/ml Tolbutamide and 200 ng/ml Labetalol (4° C.)
# Procedure: In the well plates (T5, T10, T20, T30, T60, NCF60 (no cofactor 60)) 10 uL of the compound/control working solution was added (except T0 and matric blank) followed by microsome solution (80 uL) and the mixture was incubated at 37 C for about 10 mins. A solution of potassium phosphate (10 ul of 50 mM) was added to NCF60 well, incubated at 37 C and time counting started. After prewarming 10 ul of NADPH regenerating solution was added to each plate to start the reaction. At different time point 300 uL/well of stopping solution to terminate the reaction. The sampling plates were shaken for 10 mins and the centrifuged for 20 mins at 4000 rpm. The supernatant was half diluted with ultra pure water and the analyzed using LCMS.
# [11] = Plasma Stability; type: in vitro ADME
# Experimental: Plasma Stability: Procedure: […] Plasma was warmed to 37° C. prior to the experiment and centrifuged for 5 mins at 4000 rpm. […] Each time point was monitored in triplicate (0, 10, 30, 60 and 120 min). 4 uL/well aliquot of the working solution was mixed to the blank plasma and incubated at 37° C. AT each time point samples were quenched with ACN stop solution containing 200 ng/ml Tolbutamide & 200 ng/ml Labetalol at 1:3 ratio and mix well on shaker for 10 min then centrifuge at 4000 rpm for 15 min. A 100 ul aliquot of supernatant was mixed with 100 μL of ultra-pure and submitted for LC-MS/MS analysis.
structure (smiles),measurement,setting,value
CC1C=CC=CC=CC=CC=CC=CC=CC(OC2OC(C)C(O)C(N)C2O)CC2OC(O)(CC(O)CC(O)C(O)CCC(O)CC(O)CC(=O)OC(C)C(C)C1O)CC(O)C2C(=O)NCC(O)CO (mixture of isomers) [AJ],MIC C. glabrata,[1],0.08 µM
same,MIC C. albicans,[2],0.20 µM
same,MIC C. tropicalis,[3],0.2 µM
same,MIC,[4],0.329 µM
same,MIC A. fumigatus 1163,[5],0.3 µM
same,MIC C. albicans SN250,[6],0.15 µM
same,MIC A. fumigatus 91,[7],1 µM
same,MIC C. krusei,[8],0.3 µM
same,MIC A. fumigatus 1100,[9],0.4 µM
CC1C=CC=CC=CC=CC=CC=CC=CC(OC2OC(C)C(O)C(N)C2O)CC2OC(O)(CC(O)CC(O)C(O)CCC(O)CC(O)CC(=O)OC(C)C(C)C1O)CC(O)C2C(=O)NCCS (stereo not drawn) [AB],MIC C. glabrata,[1],0.35 µM
same,MIC C. albicans,[2],0.45 µM
same,MIC C. tropicalis,[3],0.45 µM
same,MIC,[4],0.706 µM
same,MIC A. fumigatus 1163,[5],1 µM
same,MIC C. albicans SN250,[6],0.4 µM
same,MIC A. fumigatus 91,[7],1 µM
same,MIC C. krusei,[8],1 µM
same,MIC A. fumigatus 1100,[9],1 µM
CC(CO)NC(=O)C1C(O)CC2(O)CC(O)CC(O)C(O)CCC(O)CC(O)CC(=O)OC(C)C(C)C(O)C(C)C=CC=CC=CC=CC=CC=CC=CC(OC3OC(C)C(O)C(N)C3O)CC1O2 (stereo not drawn) [AC],MIC C. glabrata,[1],0.3 µM
same,MIC C. albicans,[2],0.3 µM
same,MIC C. tropicalis,[3],0.35 µM
same,MIC,[4],0.713 µM
same,MIC A. fumigatus 1163,[5],1 µM
same,MIC C. albicans SN250,[6],0.3 µM
same,MIC A. fumigatus 91,[7],2 µM
same,MIC C. krusei,[8],0.45 µM
same,MIC A. fumigatus 1100,[9],1 µM
CCC(CO)NC(=O)C1C(O)CC2(O)CC(O)CC(O)C(O)CCC(O)CC(O)CC(=O)OC(C)C(C)C(O)C(C)C=CC=CC=CC=CC=CC=CC=CC(OC3OC(C)C(O)C(N)C3O)CC1O2 (stereo not drawn) [AD],MIC C. glabrata,[1],0.3 µM
same,MIC C. albicans,[2],0.35 µM
same,MIC C. tropicalis,[3],0.4 µM
same,MIC,[4],0.731 µM
same,MIC A. fumigatus 1163,[5],1 µM
same,MIC C. albicans SN250,[6],0.3 µM
same,MIC A. fumigatus 91,[7],2 µM
same,MIC C. krusei,[8],0.5 µM
same,MIC A. fumigatus 1100,[9],1 µM
CC(C)CC(CO)NC(=O)C1C(O)CC2(O)CC(O)CC(O)C(O)CCC(O)CC(O)CC(=O)OC(C)C(C)C(O)C(C)C=CC=CC=CC=CC=CC=CC=CC(OC3OC(C)C(O)C(N)C3O)CC1O2 (stereo not drawn) [AE],MIC C. glabrata,[1],0.4 µM
same,MIC C. albicans,[2],0.75 µM
same,MIC C. tropicalis,[3],0.5 µM
same,MIC,[4],0.956 µM
same,MIC A. fumigatus 1163,[5],1 µM
same,MIC C. albicans SN250,[6],1 µM
same,MIC A. fumigatus 91,[7],2 µM
same,MIC C. krusei,[8],1 µM
same,MIC A. fumigatus 1100,[9],1 µM
CC1C=CC=CC=CC=CC=CC=CC=CC(OC2OC(C)C(O)C(N)C2O)CC2OC(O)(CC(O)CC(O)C(O)CCC(O)CC(O)CC(=O)OC(C)C(C)C1O)CC(O)C2C(=O)NC(CO)C(C)(C)C (stereo not drawn) [AF],MIC C. glabrata,[1],0.4 µM
same,MIC C. albicans,[2],0.5 µM
same,MIC C. tropicalis,[3],0.75 µM
same,MIC,[4],1.131 µM
same,MIC A. fumigatus 1163,[5],2 µM
same,MIC C. albicans SN250,[6],0.4 µM
same,MIC A. fumigatus 91,[7],2 µM
same,MIC C. krusei,[8],1 µM
same,MIC A. fumigatus 1100,[9],2 µM
COCCNC(=O)C1C(O)CC2(O)CC(O)CC(O)C(O)CCC(O)CC(O)CC(=O)OC(C)C(C)C(O)C(C)C=CC=CC=CC=CC=CC=CC=CC(OC3OC(C)C(O)C(N)C3O)CC1O2 (stereo not drawn) [AG],MIC C. glabrata,[1],0.3 µM
same,MIC C. albicans,[2],035 µM
same,MIC C. tropicalis,[3],0.4 µM
same,MIC,[4],0.806 µM
same,MIC A. fumigatus 1163,[5],1 µM
same,MIC C. albicans SN250,[6],0.4 µM
same,MIC A. fumigatus 91,[7],2 µM
same,MIC C. krusei,[8],1 µM
same,MIC A. fumigatus 1100,[9],1 µM
CC(O)CNC(=O)C1C(O)CC2(O)CC(O)CC(O)C(O)CCC(O)CC(O)CC(=O)OC(C)C(C)C(O)C(C)C=CC=CC=CC=CC=CC=CC=CC(OC3OC(C)C(O)C(N)C3O)CC1O2 (stereo not drawn) [AH],MIC C. glabrata,[1],0.2 µM
same,MIC C. albicans,[2],0.35 µM
same,MIC C. tropicalis,[3],0.45 µM
same,MIC,[4],0.763 µM
same,MIC A. fumigatus 1163,[5],1 µM
same,MIC C. albicans SN250,[6],0.35 µM
same,MIC A. fumigatus 91,[7],2 µM
same,MIC C. krusei,[8],0.75 µM
same,MIC A. fumigatus 1100,[9],1 µM
CC1C=CC=CC=CC=CC=CC=CC=CC(OC2OC(C)C(O)C(N)C2O)CC2OC(O)(CC(O)CC(O)C(O)CCC(O)CC(O)CC(=O)OC(C)C(C)C1O)CC(O)C2C(=O)NCC(C)(C)O (stereo not drawn) [AI],MIC C. glabrata,[1],0.25 µM
same,MIC C. albicans,[2],0.4 µM
same,MIC C. tropicalis,[3],0.45 µM
same,MIC,[4],0.675 µM
same,MIC A. fumigatus 1163,[5],1 µM
same,MIC C. albicans SN250,[6],0.3 µM
same,MIC A. fumigatus 91,[7],1 µM
same,MIC C. krusei,[8],1 µM
same,MIC A. fumigatus 1100,[9],1 µM
CC1C=CC=CC=CC=CC=CC=CC=CC(OC2OC(C)C(O)C(N)C2O)CC2OC(O)(CC(O)CC(O)C(O)CCC(O)CC(O)CC(=O)OC(C)C(C)C1O)CC(O)C2C(=O)NCC(O)CO (stereo not drawn) [AK],MIC C. glabrata,[1],0.1 µM
same,MIC C. albicans,[2],0.25 µM
same,MIC C. tropicalis,[3],0.3 µM
same,MIC,[4],0.431 µM
same,MIC A. fumigatus 1163,[5],0.5 µM
same,MIC C. albicans SN250,[6],0.15 µM
same,MIC A. fumigatus 91,[7],1 µM
same,MIC C. krusei,[8],0.4 µM
same,MIC A. fumigatus 1100,[9],0.75 µM
CC1C=CC=CC=CC=CC=CC=CC=CC(OC2OC(C)C(O)C(N)C2O)CC2OC(O)(CC(O)CC(O)C(O)CCC(O)CC(O)CC(=O)OC(C)C(C)C1O)CC(O)C2C(=O)NC1CC1 (stereo not drawn) [BD],MIC C. glabrata,[1],0.5 µM
same,MIC C. albicans,[2],1 µM
same,MIC C. tropicalis,[3],0.5 µM
same,MIC,[4],3.063 µM
same,Average MIC for AmB analogue,[4],0.500 μM
same,MIC A. fumigatus 1163,[5],6 µM
same,MIC C. albicans SN250,[6],0.5 µM
same,MIC A. fumigatus 91,[7],8 µM
same,MIC C. krusei,[8],4 µM
same,MIC A. fumigatus 1100,[9],4 µM
CC1C=CC=CC=CC=CC=CC=CC=CC(OC2OC(C)C(O)C(N)C2O)CC2OC(O)(CC(O)CC(O)C(O)CCC(O)CC(O)CC(=O)OC(C)C(C)C1O)CC(O)C2C(=O)NC1CCC1 (stereo not drawn) [BE],MIC C. glabrata,[1],0.5 µM
same,MIC C. albicans,[2],2 µM
same,MIC C. tropicalis,[3],1 µM
same,MIC,[4],3.563 µM
same,Average MIC for AmB analogue,[4],1.281 μM
same,MIC A. fumigatus 1163,[5],8 µM
same,MIC C. albicans SN250,[6],1 µM
same,MIC A. fumigatus 91,[7],8 µM
same,MIC C. krusei,[8],4 µM
same,MIC A. fumigatus 1100,[9],4 µM
CC1C=CC=CC=CC=CC=CC=CC=CC(OC2OC(C)C(O)C(N)C2O)CC2OC(O)(CC(O)CC(O)C(O)CCC(O)CC(O)CC(=O)OC(C)C(C)C1O)CC(O)C2C(=O)NCCO (stereo not drawn) [Compound AA],MIC C. glabrata,[1],0.145 µM
same,MIC C. glabrata,[1]; listed as AmBHEA,0.145 µM
same,MIC C. albicans,[2],0.225 µM
same,MIC C. albicans,[2]; listed as AmBHEA,0.225 µM
same,MIC C. tropicalis,[3],0.225 µM
same,MIC C. tropicalis,[3]; listed as AmBHEA,0.225 µM
same,MIC,[4],0.44 µM
same,MIC,[4]; listed as AmBHEA,0.44 µM
same,MIC A. fumigatus 1163,[5],0.525 µM
same,MIC A. fumigatus 1163,[5]; listed as AmBHEA,0.525 µM
same,MIC C. albicans SN250,[6],0.25 µM
same,CL,[10]; Dog liver microsomes,<9.6 µL/min/mg
same,CLint,[10]; Dog liver microsomes,<0.84 L/h/kg
same,Remaining (T = 60 min),[10]; Dog liver microsomes,88.5%
same,T1/2,[10]; Dog liver microsomes,>2.42 h
same,Remaining (T = NCF60 min),[10]; Dog liver microsomes,97.4%
same,CL,[10]; Human liver microsomes,<9.6 µL/min/mg
same,CLint,[10]; Human liver microsomes,<0.516 L/h/kg
same,Remaining (T = 60 min),[10]; Human liver microsomes,111%
same,T1/2,[10]; Human liver microsomes,>2.42 h
same,Remaining (T = NCF60 min),[10]; Human liver microsomes,142%
same,CL,[10]; Monkey liver microsomes,<9.6 µL/min/mg
same,CLint,[10]; Monkey liver microsomes,<0.78 L/h/kg
same,Remaining (T = 60 min),[10]; Monkey liver microsomes,113%
same,T1/2,[10]; Monkey liver microsomes,>2.42 h
same,Remaining (T = NCF60 min),[10]; Monkey liver microsomes,103%
same,CL,[10]; Mouse liver microsomes,<9.6 µL/min/mg
same,CLint,[10]; Mouse liver microsomes,<2.28 L/h/kg
same,Remaining (T = 60 min),[10]; Mouse liver microsomes,118%
same,T1/2,[10]; Mouse liver microsomes,>2.42 h
same,Remaining (T = NCF60 min),[10]; Mouse liver microsomes,140%
same,CL,[10]; Rat liver microsomes,<9.6 µL/min/mg
same,CLint,[10]; Rat liver microsomes,<1.02 L/h/kg
same,Remaining (T = 60 min),[10]; Rat liver microsomes,130%
same,T1/2,[10]; Rat liver microsomes,>2.42 h
same,Remaining (T = NCF60 min),[10]; Rat liver microsomes,113%
same,% Remaining at 120 min,[11]; Human Plasma,119%
same,Half Life,[11]; Human Plasma,>4.82 h
same,% Remaining at 120 min,[11]; Rat Plasma,108%
same,Half Life,[11]; Rat Plasma,>4.82 h
same,MIC A. fumigatus 91,[7],1 µM
same,MIC A. fumigatus 91,[7]; listed as AmBHEA,1 µM
same,MIC C. krusei,[8],0.45 µM
same,MIC C. krusei,[8]; listed as AmBHEA,0.45 µM
same,MIC A. fumigatus 1100,[9],0.7 µM
same,MIC A. fumigatus 1100,[9]; listed as AmBHEA,0.7 µM
